We go through 93 molecules from PubChem BioAssay AID1159557 (GlaxoSmithKline (GSK), 2015).

Active and inactive are the calls of the source. The rule behind the calls is not given here.

In the assay the test system is Trypanosoma brucei growth inhibition. Kind of assay: T. brucei growth inhibition (AID 1159557).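 Note: parasites exposed to compound for 48 h before the resazurin readout.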
Consider `CN(Cc1nc2c(C(=O)N3CCN(Cc4ccccc4)CC3)cccc2[nH]1)C1CCCc2cccnc21` (stereo not drawn), for which the IC50 is 630 nM.

Regarding `Cc1cc(=O)n2nc(Oc3ccc(C#N)cc3Cl)sc2n1`, the IC50 is 630 nM.

In the case of `O=C(NCCc1csc(-c2ccc(F)cc2)n1)c1ccco1`, the IC50 was 400 nM.

On to `c1ccc(CNc2cccc3ccncc23)cc1`, for which the IC50 is 25000 nM.

For the molecule `Cn1c(CC(=O)NNC(=O)c2ccc3ccccc3n2)nc2ccccc21`, the IC50 is 7900 nM.

As for `O=C(Cn1cnc([N+](=O)[O-])n1)Nc1ccc(Cl)cc1C(=O)c1ccccc1`, the IC50 is 20000 nM.

In the case of `O=C1COC(c2ccccc2)(c2ccccc2)CN1C1CCN(Cc2ccc(-n3ccnc3)cc2)CC1`, the IC50 was 790 nM.

Turning to `CC(C)Oc1ccc(C(=O)Nc2ccc(N3CCOCC3)c(Cl)c2)cc1`, the IC50 was 13000 nM.

As to `Cc1nn2c(NCCCO)c3c(nc2c1-c1cccs1)CCC3`, the IC50 was 320 nM.

In the case of `CC(C)(C)CC(=O)NCc1noc(COc2ccccc2)n1`, the IC50 is 630 nM.

Consider `CC(C)c1sc(Cl)nc1C(=O)NCCc1nc(C(=O)Nc2ccc3c(c2)OCO3)cs1`, for which the IC50 was 25000 nM.

Turning to `Cc1c(C(=O)NCCCCn2ccnc2)oc2c(C)cccc12`, the IC50 was 20000 nM.

Take `COc1ccc(C2C3CCCCC3(O)CCN2CC(=O)Nc2ccc(Cl)cc2Cl)cc1` (stereo not drawn): the IC50 is 7900 nM.

For `CCN(CC)c1nc(N(C)C)nc2c1CN(Cc1ccccc1)CC2`, the IC50 is 20000 nM.

On to `O=C(Nc1nc(-c2ccc(S(=O)(=O)N3CCOCC3)cc2)cs1)c1ccc([N+](=O)[O-])cc1`, for which the IC50 was 4000 nM.

Consider `CCCN(Cc1ccc(OC)c(OC)c1)Cc1cc(=O)c2c(C)cc(C)cc2[nH]1`, for which the IC50 is 25000 nM.

Consider `Cc1ccc2nc(N(Cc3cccnc3)C(=O)CCc3ccccc3)sc2c1`, for which the IC50 is 13000 nM.

Consider `Cc1[nH]n2c(=O)c3c(nc2c1-c1ccc(Cl)cc1)CCCC3`, for which the IC50 is 160 nM.

For `COc1ccccc1-n1c(SCC(=O)Nc2ccc3c(c2)OCO3)nc2c(c1=O)SCC2`, the IC50 was > 40000 nM (inactive).

`Cc1c(Nc2cc(C3CC3)[nH]n2)ccc(C#N)c1Cl`: the IC50 is 400 nM.

In the case of `COc1ccc(C(=O)NC2CCN(CCn3c(=O)ccc4ncc(F)cc43)CC2)cc1Cl`, the IC50 is 130 nM.

Turning to `Cc1ccccc1CNc1cc(C2CC2)nc(-c2nccn2C)n1`, the IC50 was 2500 nM.

Consider `CC(C)(C)CC(=O)NCCc1csc(-c2ccc(F)cc2)n1`, for which the IC50 was 630 nM.

In the case of `CNC(=O)C1Cc2ccccc2N1C(=O)COc1cccc(OC)c1` (stereo not drawn), the IC50 is 630 nM.

In the case of `N#Cc1ccc(S(=O)(=O)N2CCC3(CCN(c4ccccc4)C3=O)CC2)cc1`, the IC50 is > 40000 nM (inactive).

Take `N#CN1CC[C@@H](NC(=O)Nc2ccccc2Oc2ccccc2)C1`: the IC50 is 1000 nM.

Turning to `COc1cnc2ccc(=O)n(CCN3CCC(NC/C=C/c4cc(F)ccc4F)CC3)c2c1`, the IC50 is 400 nM.

Consider `Nc1nc(-c2ccccn2)nc(-n2nc(-c3ccccc3)cc2N)n1`, for which the IC50 is 1000 nM.

Take `O=C(Cc1ccccc1)Nc1ccccc1C(=O)Nc1nccs1`: the IC50 is 250 nM.

Regarding `O=C1CCCCCC1(Cc1cnc[nH]1)c1ccc(Cl)cc1Cl` (stereo not drawn), the IC50 is > 40000 nM (inactive).

As to `C[C@@H](Oc1cc(-n2cnc3ccc(O[C@H]4CCNC4)cc32)sc1C(N)=O)c1ccccc1Cl`, the IC50 was 250 nM.

On to `COc1ccccc1CNc1cc(C2CC2)nc(-c2nccn2C)n1`, for which the IC50 was 2500 nM.

As for `CN(C)S(=O)(=O)c1cccc(C(=O)Nc2nc(-c3ccccn3)cs2)c1`, the IC50 is 500 nM.

With `O=C(Nc1nc(-c2ccc(F)cc2)cs1)c1ccc([N+](=O)[O-])s1`, the half-maximal inhibitory concentration (IC50) is 250 nM.

With `Cc1ccc(NC(=O)c2ccc(Cl)c(NC(=O)c3ccc([N+](=O)[O-])cc3)c2)cc1`, the IC50 is 7900 nM.

Regarding `CCN(Cc1nc2ccc(C(=O)N3CCN(c4ncccn4)CC3)cc2[nH]1)C1CCCc2cccnc21` (stereo not drawn), the concentration for half-maximal inhibition (IC50) was 2500 nM.

For `Fc1ccc(OC2CC(NCc3cccc4cn[nH]c34)C2)cc1C(F)(F)F` (stereo not drawn), the IC50 was 7900 nM.

For the molecule `COc1cccc(S(=O)(=O)Nc2ccc3c(c2)CC(N2CCC(NC(=O)C4CC4)CC2)C3)c1` (stereo not drawn), the concentration for half-maximal inhibition (IC50) is 1000 nM.

For `O=C(Nc1nc(-c2ccccn2)cs1)c1ccccc1-n1cnnn1`, the IC50 was 630 nM.

Regarding `O=C(NC(CO)c1ccc(F)cc1)c1ccc(-c2c[nH]c3ncccc23)s1` (stereo not drawn), the IC50 was 250 nM.

Consider `COC(=O)c1ccc(-c2cnc3ccc(NCc4ccccn4)nn23)cc1`, for which the IC50 was 630 nM.

For the molecule `Cc1nc(-c2ccc3c(c2)OCO3)sc1C(=O)NCc1ccc2c(c1)OCO2`, the IC50 is 10000 nM.

For `OCC1CCCCN1c1cc(-c2ccccn2)nc(Nc2ccccc2)n1` (stereo not drawn), the IC50 was 5000 nM.

Regarding `NC(=O)c1cc(F)ccc1Nc1nc(NC2CCC(O)CC2)ncc1Br` (stereo not drawn), the IC50 is 79 nM.

For the molecule `O=c1ccc2ccc(F)c3c2n1C[C@H]3CN1CCC(NCc2cc3ccccc3o2)CC1`, the IC50 is 630 nM.

As for `O=C(CSc1nnc(-c2ccc3c(c2)OCO3)o1)N(Cc1ccco1)CC(F)(F)F`, the IC50 was > 40000 nM (inactive).

`CC(C)c1cc(C(=O)N2CCCC(c3cc4ncccc4[nH]3)C2)on1` (stereo not drawn): the IC50 is > 40000 nM (inactive).

Take `O=C(CN(Cc1ccccn1)Cc1ccccn1)NCc1csc(-c2cccs2)n1`: the IC50 is 20000 nM.

On to `CCOc1ccc(OCC(=O)N2c3ccccc3CC2C(=O)NC)cc1` (stereo not drawn), for which the IC50 is 500 nM.

Consider `O=C(Nc1nccs1)c1ccccc1Cn1cc([N+](=O)[O-])cn1`, for which the IC50 is 320 nM.

With `COc1ccc(-c2cc(C)no2)cc1S(=O)(=O)Nc1ccc(C)c(C)c1`, the 50% inhibitory concentration (IC50) is 20000 nM.

With `Cc1[nH]nc(-c2nc3ccccc3[nH]2)c1C(=O)NC1CCCNC1` (stereo not drawn), the IC50 is 400 nM.

Regarding `CCc1ccccc1[C@@H](C)NC(=O)c1cnc2c(cnn2CC)c1NC1CCN(C(N)=O)CC1`, the IC50 was 250 nM.

Regarding `COc1ccc(Nc2nc(-c3ccccn3)cs2)c(OC)c1`, the IC50 is 20000 nM.

Turning to `CC(=O)Nc1ccc(-c2ccnc(Nc3cccc(C#N)c3)n2)cc1`, the IC50 is 630 nM.

In the case of `CN1CCC(N(C)c2nccc(N3CCN(C(=O)c4cccc(-c5cccnc5)c4)CC3)n2)CC1`, the IC50 was 790 nM.

As for `CC(C)(C)Nc1nc(Nc2ccc3c(c2)CS(=O)(=O)C3)nc2[nH]ccc12`, the IC50 was 790 nM.

On to `CC1CN(S(=O)(=O)c2ccc(NC(=O)c3cc(C4CC4)nc4c3cnn4C(C)C)cc2)CC(C)O1` (stereo not drawn), for which the IC50 was 6300 nM.

On to `FC(F)(F)c1cc(C2CCCN(Cc3c[nH]c4ccccc34)C2)nc2ncnn12` (stereo not drawn), for which the IC50 was > 40000 nM (inactive).

Turning to `Cc1[nH]n2c(=O)c3c(nc2c1-c1ccc(Br)cc1)CCCC3`, the IC50 was 400 nM.

On to `O=c1oc2ccccc2n1C1CCN(Cc2ccccc2-c2cccnc2)CC1`, for which the IC50 was 40000 nM.

Regarding `CCCCNc1nccc(-c2c(-c3ccc(F)cc3)nn3c(N4CCOCC4)cccc23)n1`, the IC50 was 10000 nM.

With `Fc1ccccc1N1C[C@H]2CCN(c3cccnc3)C[C@H]2C1`, the IC50 is 32000 nM.

For the molecule `CN(C)c1ccc(N)cc1CN(CC1CCCO1)S(C)(=O)=O` (stereo not drawn), the IC50 was > 40000 nM (inactive).

With `Clc1ccc(C(CC2CCCCO2)Cn2cncn2)c(Cl)c1` (stereo not drawn), the IC50 was > 40000 nM (inactive).

On to `COc1ccc(C(=O)[C@H]2C[C@@H]2CN(Cc2ccccn2)Cc2ccccn2)cc1`, for which the IC50 is 6300 nM.

Consider `O=C(Nc1nc(-c2ccccn2)cs1)N1C[C@H]2C[C@@]2(c2ccccc2)C1`, for which the IC50 is 500 nM.

Take `O=c1[nH]c(NCCCNCc2cc(Br)cc(Br)c2)nc2ccsc12`: the IC50 was 100 nM.

On to `NS(=O)(=O)c1ccc(Nc2ncc3cccc(OC4CCNCC4)c3n2)cc1`, for which the IC50 is 200 nM.

As for `O=C(Nc1nc2ccccc2[nH]1)c1c(O)c2cccc3c2n(c1=O)CC3`, the IC50 is 16000 nM.

For `Cn1nc([N+](=O)[O-])nc1Oc1ccc(C(=O)c2ccccc2)cc1`, the IC50 is 20000 nM.

For the molecule `CCOc1ccc(CC(=O)N2c3ccccc3CC2C(=O)NC)cc1` (stereo not drawn), the IC50 was 500 nM.

For `CC(=O)Nc1ccc(-c2cnc(N)c(-c3nc4ccc(F)cc4[nH]3)c2)cc1`, the IC50 was 630 nM.

In the case of `N#Cc1cccc(Cc2cc(Nc3cc(C4CC4)[nH]n3)nc(N3CC[C@H]3C(N)=O)n2)c1`, the IC50 was 40 nM.

Turning to `O=C(NCc1ccc(Cl)cc1)C1CN(C(=O)c2ccc(F)cc2)CCS1` (stereo not drawn), the IC50 is 790 nM.

As to `O=C(NCc1ccncc1)c1ccccc1N1CCCN(C(=O)Cc2ccc(F)c(F)c2)CC1`, the IC50 was 6300 nM.

For the molecule `Cc1ccc(NC(=O)c2ccnc(N3CCCC3)c2)cc1-c1ccsc1C(N)=O`, the IC50 was 63 nM.

As for `CNC(=O)Oc1ccc(C(=O)NCc2ccccc2)cc1OC(=O)NC`, the IC50 is 130 nM.

As to `CCOc1ccc(Nc2ccc(S(=O)(=O)N3CCN(C)CC3)cc2[N+](=O)[O-])cc1OCC`, the IC50 was 6300 nM.

As to `COc1cc(F)c2ncc(F)c(CCN3CC[C@H](NCc4cc5c(cn4)OCS5)[C@@H](O)C3)c2c1`, the IC50 was 250 nM.

For the molecule `Cc1ccc2onc(Nc3ccnc(Nc4cccc(S(C)(=O)=O)c4)n3)c2c1`, the IC50 was 6300 nM.

Regarding `COc1ccc(-c2cnc(C)o2)cc1S(=O)(=O)Nc1ccc(C)cc1C`, the IC50 is 6300 nM.

In the case of `O=C(Nc1ccc(-c2nc3ccccc3c(=O)[nH]2)cc1)c1cccs1`, the IC50 is 250 nM.

Take `CN(C)S(=O)(=O)c1ccc(-c2cnc(N)c(-c3nc4ccc(F)cc4[nH]3)c2)cc1`: the IC50 was 400 nM.

Turning to `CNC(=O)C1Cc2ccccc2N1C(=O)Cc1ccccc1` (stereo not drawn), the half-inhibitory concentration (IC50) was 630 nM.

Take `COc1ccccc1C=CCN1C[C@H]2CCC[C@@H](C1)C2(O)c1cccnc1` (stereo partly drawn): the IC50 is > 40000 nM (inactive).

Take `O=C(CN1CCN(S(=O)(=O)c2cccc([N+](=O)[O-])c2)CC1)Nc1ccc(Oc2ccccc2)cc1`: the half-inhibitory concentration (IC50) is 20000 nM.

Turning to `CS(=O)(=O)c1cccc(CNC(=O)c2cncc(N3CCN(c4ccc(F)cc4)CC3)c2)c1`, the half-inhibitory concentration (IC50) was 32000 nM.

Regarding `Cc1ccc(S(=O)(=O)Nc2ccc(CN3CCN(C(=O)c4cccc(C#N)c4)CC3)cc2)cc1`, the IC50 is 160 nM.

Regarding `COc1cccc(CN(C)Cc2nc(N)c3c(C)c(C)sc3n2)c1`, the IC50 is 5000 nM.

As for `CC(C)(C)c1csc(NC(=O)c2ccc([N+](=O)[O-])s2)n1`, the IC50 is 200 nM.

Regarding `COc1ccc2nccc(NC(=O)C3(OC)CCN(CC(O)c4ccc5c(c4)OCCO5)CC3)c2n1` (stereo not drawn), the IC50 was 400 nM.

Regarding `O=C(CC1(O)C(=O)N(Cc2cccs2)c2ccc(Br)cc21)c1cccnc1` (stereo not drawn), the IC50 is 630 nM.

In general, IC50 refers to the midpoint of a concentration-inhibition curve.
